Measurements as given in PMC11583597, “Brain uptake pharmacokinetics of albiglutide, dulaglutide, tirzepatide, and DA5-CH in the search for new treatments of Alzheimer’s and Parkinson’s diseases” (Tissue Barriers, 2023).
Where two headings read alike, the source gives them in different places. Marks after values point to notes of the source that are not given here.

Legend:
[1] = Octanol/buffer partition coefficient (lipid solubility); type: physicochemical
Description: We measured the lipid solubility of the IRAs, using octanol and PB. Briefly, 1 × 10^5 counts per minute (cpm) of each ^125I/^14C-IRA were added to triplicate tubes containing equal volumes PB and octanol (Sigma-Aldrich). This solution was vigorously mixed for 1 min and centrifuged at 5500 ×g for 10 min to separate the two phases. Aliquots of 100 μl were taken in duplicate from each phase, and total radioactivity was counted in a gamma counter (Wizard2, Perkin-Elmer) or beta counter (TriCarb 3110TR, Perkin-Elmer). The ratio of the cpm in the octanol phase to the cpm in the buffer phase equates to the mean partition coefficient (Pcoeff) and indicates lipophilicity. The log value for the coefficient can be either greater than unity, indicative of a lipophilic compound, or less than unity, indicative of a hydrophilic compound.

[2] = In vivo stability of 125I/14C-IRAs in brain (acid precipitation); design: species or system male CD-1 mice; settings: mouse, iv
Description: (§1) We measured the stability of the radiolabeled IRAs in brain and blood. Following anesthetization, arterial blood and whole brain were taken at two time points (10 or 60 min) after iv injection of 3 × 10^5 cpm-1×10^6 cpm of ^125I/^14C-IRA in 0.2 ml of BSA/LR. The blood samples were allowed to clot, centrifuged at 3200 ×g for 10 min, and 50 μl of the separated serum was added to 250 μl of BSA-LR. Samples were combined with equal volume 30% TCA (300 μl), mixed, and then centrifuged for 10 min at 5400 ×g. Brains were homogenized in 800 μl of BSA-LR with a bead beater for 30 sec at 4800 rpm twice. Following centrifugation at 5400 ×g for 15 min, a portion of the resulting supernatant was added to an equal volume of 30% TCA, mixed, and then centrifuged at 5400 ×g for 10 min. The radioactivity in the resulting supernatant and pellet (Sup and Pel fractions) for serum and brain was calculated separately, and the percent of radioactivity in the precipitate was calculated using the following equation:(1) %AcidPrecip=100×Pel/Sup+Pel
(§2) To correct for degradation that might have occurred during the processing, ^125I/^14C-IRA was added to non-radioactive arterial whole blood or to whole brain and processed as above. The biological samples were corrected for degradation during processing by dividing their values by those for processing control (Pcon) values and multiplying by 100. This can sometimes result in a value greater than 100%.
(§3) Immediately after counting the radioactivity, the blood and brains from the 10 min and 6 h time points were processed as described in Section 2.5 for in vivo stability. For further comparison, data from the 1 h time point were taken from the original pharmacokinetic uptake study. The ^125I-IRA brain % acid precipitation (%AP) was divided by the ^125I-IRA serum %AP at each time point to calculate the %AP B/S ratio. This value was multiplied by the B/S ratio for each ^125I-IRA to correct for degradation over the 10 min, 1 h, or 6 h time periods. Corrected AP B/S ratios were then corrected for vascular space by subtracting the ^99mTc-Alb B/S ratio within each mouse for the 10 min and 6 h time points (AP corrected delta B/S ratio). For the 1 h time point, the average ^99mTc-Alb B/S ratio (10.03 μl/g) at 10 min across all ^125I-IRAs was used for correction. The AP corrected delta B/S ratio for each ^125I-IRA was then multiplied by the %Inj/ml within each mouse to calculate the AP corrected delta %Inj/g.

[3] = In vivo stability of 125I/14C-IRAs in blood/serum (acid precipitation); design: species or system male CD-1 mice; settings: mouse, iv
Description: as §1, §2, §3

[4] = design: species or system male CD-1 mice; settings: mouse, in vivo, iv
Description: (§4) Following anesthetization, the jugular vein and right carotid artery were exposed. Mice were given a jugular vein injection of 0.2 ml BSA-LR containing 3 × 10^5 cpm-1×10^6 cpm of an ^125I/^14C-labeled IRA and 5 × 10^5 cpm of ^99mTc-Alb. Blood samples were collected from the carotid artery at various time points from 1 to 60 min after iv injection (see Figure 1). Mice were then decapitated, and their brains were removed and weighed. After clotting, the arterial blood was centrifuged at 3200 ×g for 10 min. Levels of radioactivity in serum (50 μl) and brain were measured in a gamma counter for ^125I and ^99mTc for 3 min. After ^99mTc decay, ^14C-DA5-CH samples were solubilized with Solvable (Sigma), transferred to scintillation vials containing Ecoscint (National Diagnostics) and ^14C was measured in a beta counter. Sample injection checks were taken throughout the course of the study to calculate the mean injected cpm/mouse. To determine the rate of ^125I/^14C-IRA clearance from the serum, the results were expressed as the percentage of an injected dose in each ml of serum (%Inj/ml), which was calculated by dividing the cpm in a ml of serum (cpm/ml serum) by the cpm injected into the mouse (cpm/Inj):
(2) %Inj/ml=100×cpm/mlserum/meancpm/Inj
The log(%Inj/ml) was plotted against time to calculate the rate of clearance from the serum. To calculate the half-time clearance in minutes, the inverse slope […] of the curve for each IRA was multiplied by 0.301 (log10[2]). The blood and brain cpm data were used for the measurement of brain influx and initial volume of distribution in brain as described in Section 2.7.

[5] = Brain influx and initial volume of distribution (multiple-time regression analysis); design: species or system male CD-1 mice; settings: mouse, in vivo; for Blood to Brain Unidirectional Influx Rate (Ki): iv
Description: as §4
To calculate the blood-to-brain unidirectional influx constant (Ki), multiple-time regression analysis was used as first described by Patlak, Blasberg, and Fenstermacher.[67],[68] The brain/serum (B/S) ratios (μl/g) of the ^125I/^14C-IRA in each gram of brain were calculated from the data in Section 2.6 and plotted against their respective exposure times as previously applied by Rhea et al. 2018.[69] Exposure time differs from clock time in that exposure time corrects for clearance of the ^125I/^14C-IRA from blood and thus, better represents the amount of ^125I/^14C-IRA available for BBB transport at any given time. Delta B/S ratios were calculated by subtracting the vascular space as measured by the B/S ratio for ^99mTc-Alb from the B/S ratio for the respective ^125I/^14C-IRA. Thus, delta B/S ratios represent material that has been taken up by or has crossed the BBB. The slope of the linear portion of the relation between delta B/S ratios and exposure time defines Ki (μl/g-min) and is reported with its error term. This represents Model 1 for DA5-CH. The y-intercept of this linear portion of the relation defines Vi, (μl/g), the initial volume of distribution in brain at t = 0, which is the functional volume per unit brain mass of a soluble compound that exchanges rapidly and reversibly with plasma.[68] Vi consists of the vascular space (Vv) and any residual space after accounting for Vv and usually represents vascular binding (Vr). Since we correct each ^125I/^14C-IRA delta B/S for vascular space, our y-intercept values likely represent vascular binding. For DA5-CH, there appeared to be rapid, early transport that would indicate a Vr equal to 0. Therefore, using Vr equal to 0, we calculated an estimate of this new Ki and refer to it throughout the manuscript as Model 2.

[6] = design: species or system male CD-1 mice; settings: mouse, in vivo, iv; remark: listed apart in the source
Source text: This value is then multiplied by the %Inj/ml of each ^125I/^14C-IRA at each time point. After plotting the %Inj/g at each time point for each IRA, we calculated the area under the curve (AUC) to better identify the amount of brain exposure to each IRA over the entire time course.

[7] = design: species or system male CD-1 mice; settings: mouse, in vivo, iv; remark: listed apart in the source
Description: Anesthetized mice were co-injected iv with 3 × 10^5 cpm-1×10^6 cpm ^125I/^14C-IRA and 5 × 10^5 cpm of ^99mTc-Alb in 0.2 ml BSA-LR with or without 1 μg of the non-radioactive IRA. Fifteen minutes after iv injection, blood was collected from the right carotid artery, and the whole brain was removed and weighed. Samples were counted for radioactivity. Results were expressed as delta B/S ratios in units of μl/g.

[8] = mouse, in vivo, iv
Description: The capillary depletion method was used to separate cerebral capillaries from brain parenchyma. Anesthetized mice received an iv injection of 3 × 10^5-1×10^6 cpm of an ^125I-IRA with 5 × 10^5 cpm ^99mTc-Alb BSA-LR and 15 min later, blood and brains were collected. Whole brains were homogenized with physiological buffer (10 mM HEPES, 141 mM NaCl, 4 mM KCl, 2.8 mM CaCl2, 1 mM MgSO4, 1 mM NaH2PO4, and 10 mM D-glucose adjusted to pH 7.4) using two different sized glass dounce homogenizers, mixed with 26% dextran (Sigma-Aldrich), and centrifuged at 5400 ×g for 15 min at 4°C.[69] The pellet, containing the capillaries, and the supernatant, containing the brain parenchymal/interstitial fluid space, were carefully separated. The ratio of ^125I-IRA radioactivity in the supernatant (parenchyma) was corrected for vascular space by subtracting the B/S ratio of ^99mTc-Alb in the supernatant. The corrected parenchyma/serum and capillary/serum ratios (μl/g) were calculated as (cpm/g tissue)/(cpm/μl) serum.

[9] = mouse, in vivo; cited from earlier work
Description: The rank order of IRAs showing significant brain uptake 1 h after iv injection with respect to AUCs is similar, but not identical to the rank order of their Ki’s (see Figures 5b and 3b). Less similar is the rank order of IRAs for uptake into brain parenchyma defined as the percent reaching the brain that was in its parenchyma vs. its capillaries. The rank order of parenchymal uptake was specifically DA4-JC (89.7%) = albiglutide (BAF) (89.4%) > DA3-CH (86%) > exenatide (84.2%) > Peptide 17 (73.2%) > lixisenatide (66.8%) > dulaglutide (BAF) (61.8%) > DA5-CH (57.6%) > Peptide 21 (43.6%) > liraglu ...

[10] = mouse, in vivo, iv; cited from earlier work
Source text: The unidirectional blood-to-brain influx rate (Ki) calculated from Figure 2c for all four IRAs tested is graphed with previously calculated Ki’s for other IRAs[50] in Figure 3 by rank.

[11] = mouse, in vivo, iv; cited from earlier work; remark: listed apart in the source

Substance | Lipid Solubility Partition Coefficient ([1]; pH 7.5) | Log Partition Coefficient (Log P) ([1]; pH 7.5) | Percentage of labeled IRA intact, Whole Brain, 10 min [2] [%] | Percentage of labeled IRA intact, Whole Brain, 60 min [2] [%] | Percentage of labeled IRA intact, Serum, 10 min [3] [%] | Percentage of labeled IRA intact, Serum, 60 min [3] | Half-Time Serum Clearance (t1/2) [4] [min] | Blood to Brain Unidirectional Influx Rate (Ki) [5] [µL/g/min] | Percent of injected dose taken up per gram brain (%Inj/g), 10 min [6] [%Inj/g] | Percent of injected dose taken up per gram brain (%Inj/g), 60 min [6] [%Inj/g] | Whole Brain delta brain/serum ratio, Without unlabeled IRA [7] [µL/g] | Percent in Parenchyma vs. Capillaries [8] [%] | Percent of injected dose taken up per gram brain (%Inj/g), 15 min [6] [%Inj/g] | Log Partition Coefficient (Log P) ([1]; shake-flask octanol / sodium phosphate buffer pH 7.5 (PB), radiolabelled IRA, gamma or beta counting, mean ± SE, triplicate tubes) | Probable Ki of DA5-CH [5] [µL/g/min] | Probable Vr of DA5-CH [5] [µL/g] | Percent reaching the brain that was in parenchyma vs. capillaries [9] [%] | Blood to Brain Unidirectional Influx Rate (Ki) [10] [µL/g/min] | %Inj/g by 60 min [11] [%Inj/g]
HGEGTFTSDVSSYLEEQAAKEFIAWLVKGGG [Dulaglutide (BAF)] | 0.0102 ± 0.0007 | -1.991 ± 0.0287 | 58.42 ± 0.3 | 37.47 ± 4.1 | 84.67 ± 0.8 | 39.1 ± 1.4^a % | 6.02 | 1.095 ± 0.072 | 0.20 | 0.33 | 17.86 ± 0.99 | 61.8 | – | – | – | – | – | – | –
HGEGTFTSDVSSYLEGQAAKEFIAWLVKGR [Albiglutide (BAF)] | 0.0132 ± 0.0040 | -1.916 ± 0.121 | 43.35 ± 2.9 | 40.9 ± 9.3 | 53.96 ± 0.4 | 20.71 ± 1.3^a % | 6.14 | 1.379 ± 0.086 | – | – | 39.3 ± 1.50 | 89.4 | 0.36 | – | – | – | – | – | –
YXEGTFTSDYSIYLDKQAAXEFVNWLLAGGPSSGAPPPSKRRQRRKKRGY-NH2 [DA5-CH] | – | – | 79.7 ± 12.9 | 77.61 ± 22.3 | 83.83 ± 4.9 | 49.35 ± 2.5^a % | 2.03 | 0.242 ± 0.128 | – | – | 26.25 ± 8.07 | 57.6 | – | -2.183 ± 0.0281 | 0.24 to 2.5 | 0 to 11.2 | – | – | –
exenatide: FDA-approved IRA tested in the earlier study (ref 50) | – | – | – | – | – | – | – | – | – | – | – | – | – | – | – | – | 84.2 | 0.4231 | 0.56
